Results on eight compounds are retold here after EP0343801A2, “N-(5,6,7,8-tetrahydropyrido(2,3-D)pyrimidin-6-yl-alkanoyl)-glutamic acid derivatives” (THE TRUSTEES OF PRINCETON UNIVERSITY, priority 1988, dated 1989).

One data set concerns CCRF-CEM. The data set is described as follows: IC50 in whole cell human leukemia cell lines, CCRF-CEM. It is filed as cell-based. The settings on record: read-out: IC₅₀. How it is done:
The IC₅₀ in whole cell human leukemia cell lines, CCRF-CEM, of N-[5-(2-{2-amino-4-hydroxy-5,6,7,8-tetrahydropyrido[2,3-d]pyrimidin-6-yl}ethyl)thien-2-ylcarbonyl]-L-glutamic acid is 0.0015 ug/mL. The IC₅₀ of N-[5-(2-{2-amino-4-hydroxy-5,6,7,8-tetrahydropyrido[2,3-d]pyrimidin-6-yl}ethyl)fur-2-ylcarbonyl]-L-glutamic acid is 0.010 ug/mL. The IC₅₀ of N-[4-(2-{2-amino-4-hydroxy-5,6,7,8-tetrahydropyrido[2,3-d]pyrimidin-6-yl}-ethyl)thien-2-ylcarbonyl]-L-glutamic acid is 0.0756 ug/mL.
The IC₅₀ in whole cell human leukemia cell lines, CCRF-CEM, of other compounds of this invention are as follows: […]

Data set [1] deals with 6C3HED lymphosarcoma tumors. The data set is described as follows: In vivo evaluation against 6C3HED lymphosarcoma tumors in mice. The settings on record: IP, daily administration.
For the next data set, the system named is MX-1 Mammary Xenography. The data set is described as follows: In vivo evaluation against MX-1 Mammary Xenography in mice. The following applies: IP, daily administration, days 1, 4, 7, 10.
The test system of data set [2] is CA-755 Adenocarcinoma tumors. Put plainly: In vivo evaluation against CA-755 Adenocarcinoma tumors in mice. The settings on record: IP, daily administration, days 1, 4, 7, 10.
The test system of the next data set is CX-1 Colon Xenography. Put plainly: In vivo evaluation against CX-1 Colon Xenography in mice. The settings on record: IP, daily administration, days 1, 4, 7, 10.
Data set [3] deals with C3H Mammary Adenocarcinoma tumors. The data set is described as follows: In vivo evaluation against C3H Mammary Adenocarcinoma tumors in mice. The following applies: IP, daily administration, days 1, 4, 7, 10.
For another data set, the system named is B-16 Melanoma tumors. Put plainly: In vivo evaluation against B-16 Melanoma tumors in mice. The following applies: IP, daily administration, days 1, 7.
In the next data set the test system is LX-1 Lung Xenography. Put plainly: In vivo evaluation against LX-1 Lung Xenography in mice. The settings on record: IP, daily administration, days 1, 4, 7, 10.

Values after ≈ are worked out from the molar mass of the structure shown.

As to `Nc1nc(O)c2c(n1)NCC(CCCCC(=O)N[C@@H](CCC(=O)O)C(=O)O)C2` (stereo partly drawn) [-(CH₂)₂-, N-[5-(2-amino-4-hydroxy-5,6,7,8-tetrahydropyrido[2,3-d]pyrimidin-6-yl)pentanoyl]-L-glutamic acid], in the data set with CCRF-CEM, the IC50 came out at 0.023 µg/mL (≈ 0.0582 µM).
Same read-out and setting: for `Nc1nc(O)c2c(n1)NCC(CCCCCC(=O)N[C@@H](CCC(=O)O)C(=O)O)C2` (stereo partly drawn) [-(CH₂)₃-, N-[6-(2-Amino-4-hydroxy-5,6,7,8-tetrahydropyrido[2,3-d]pyrimidin-6-yl)hexanoyl]-L-glutamic Acid] the value was 0.0075 µg/mL (≈ 0.0183 µM).
On the same count and under the same terms, for `Nc1nc(O)c2c(n1)NCC(CCCCCCC(=O)N[C@@H](CCC(=O)O)C(=O)O)C2` (stereo partly drawn) [-(CH₂)₄- CH₂-CH₂, N-[7-(2-Amino-4-hydroxy-5,6,7,8-tetrahydropyrido[2,3-d]pyrimidin-6-yl)heptanoyl]-L-glutamic acid] the value was 0.034 µg/mL (≈ 0.0803 µM).
Usually % Inhibition stands for the share of the control response that was lost under treatment. For the compound `Nc1nc(O)c2c(n1)NCC(CCCC(=O)N[C@@H](CCC(=O)O)C(=O)O)C2` (stereo partly drawn) [N-[4-(2-amino-4-hydroxy-5,6,7,8-tetrahydropyrido[2,3-d]pyrimidin-6-yl)butyryl]-L-glutamic acid], the “% Inhibition” value is reported as 0% in data set [1] (3.12 mg/kg, eight days); 11% in data set [1] (6.25 mg/kg, eight days); 62% in data set [1] (12.5 mg/kg, eight days); 88% in data set [1] (25 mg/kg, eight days); 98% in data set [1] (50 mg/kg, eight days). The Toxicity in data set [1] (3.12 mg/kg, eight days) is listed as 0/10; in data set [1] (6.25 mg/kg, eight days) it was 0/10; in data set [1] (12.5 mg/kg, eight days), 0/10; in data set [1] (25 mg/kg, eight days) it was 0/10; in data set [1] (50 mg/kg, eight days), 1/10.
Consider `Nc1nc(O)c2c(n1)NCC(CCc1csc(C(=O)N[C@@H](CCC(=O)O)C(=O)O)c1)C2` (stereo partly drawn) [N-[4-(2-{2-amino-4-hydroxy-5,6,7,8-tetrahydropyrido[2,3-d]pyrimidin-6-yl}ethyl)thien-2-ylcarbonyl]-L-glutamic acid], for which, in the data set with CCRF-CEM, the IC50 was 0.0756 µg/mL (≈ 0.168 µM).
`Nc1nc(O)c2c(n1)NCC(CCc1ccc(C(=O)N[C@@H](CCC(=O)O)C(=O)O)s1)C2` (stereo partly drawn) [N-[5-(2-{2-Amino-4-hydroxy-5,6,7,8-tetrahydropyrido[2,3-d]pyrimidin-6-yl}ethyl)thien-2-ylcarbonyl]-L-glutamic Acid]: the “% Inhibition” value with MX-1 Mammary Xenography (5 mg/kg) is 84%; with MX-1 Mammary Xenography (10 mg/kg) it was 96%; in the data set on MX-1 Mammary Xenography (20 mg/kg), “toxic”; in the data set on MX-1 Mammary Xenography (40 mg/kg), “toxic”; in data set [2] (20 mg/kg), 78%; in data set [2] (40 mg/kg), 83%. Further, the “% Inhibition” value with CX-1 Colon Xenography (5 mg/kg) is on record as 90%; in the data set on CX-1 Colon Xenography (10 mg/kg), 94%; in the data set on CX-1 Colon Xenography (20 mg/kg) it was 91%; in the data set on CX-1 Colon Xenography (40 mg/kg), “toxic”; in data set [3] (2.5 mg/kg), 71%; in data set [3] (5 mg/kg) it was 90%. Further, the “% Inhibition” value in data set [3] (10 mg/kg) was 94%; in data set [3] (20 mg/kg) it was 100%; in data set [3] (40 mg/kg) it was 100%; in data set [1] (0.78 mg/kg, 10 days), 93%; in data set [1] (1.56 mg/kg, 10 days), 100%; in data set [1] (3.12 mg/kg, 10 days), 100%. Further, the “% Inhibition” value is given as “toxic” in data set [1] (6.25 mg/kg, 10 days); 38% with B-16 Melanoma tumors (50 mg/kg); 73% with B-16 Melanoma tumors (100 mg/kg); 93% with B-16 Melanoma tumors (200 mg/kg); 98% in the data set with LX-1 Lung Xenography (10 mg/kg); 100% in the data set with LX-1 Lung Xenography (20 mg/kg). In addition, the “% Inhibition” value in the data set on LX-1 Lung Xenography (40 mg/kg) is recorded as “toxic”. The Toxicity is given as 3/10 in the data set with MX-1 Mammary Xenography (5 mg/kg); 5/10 in the data set on MX-1 Mammary Xenography (10 mg/kg); 9/9 in the data set with MX-1 Mammary Xenography (20 mg/kg); 10/10 with MX-1 Mammary Xenography (40 mg/kg); 0/10 in data set [2] (20 mg/kg); 0/10 in data set [2] (40 mg/kg). For the same compound, the Toxicity in the data set on CX-1 Colon Xenography (5 mg/kg) was 3/10; in the data set on CX-1 Colon Xenography (10 mg/kg), 6/10; in the data set with CX-1 Colon Xenography (20 mg/kg) it was 9/10; in the data set with CX-1 Colon Xenography (40 mg/kg), 10/10; in data set [3] (2.5 mg/kg) it was 0/10; in data set [3] (5 mg/kg), 1/10. For the same compound, the Toxicity is on record as 0/10 in data set [3] (10 mg/kg); 0/10 in data set [3] (20 mg/kg); 0/10 in data set [3] (40 mg/kg); 0/10 in data set [1] (0.78 mg/kg, 10 days); 0/10 in data set [1] (1.56 mg/kg, 10 days); 6/10 in data set [1] (3.12 mg/kg, 10 days). For the same compound, the Toxicity in data set [1] (6.25 mg/kg, 10 days) is reported as 10/10; with B-16 Melanoma tumors (50 mg/kg), 0/9; in the data set with B-16 Melanoma tumors (100 mg/kg) it was 3/10; in the data set with B-16 Melanoma tumors (200 mg/kg), 4/10; with LX-1 Lung Xenography (10 mg/kg), 0/8; with LX-1 Lung Xenography (20 mg/kg), 4/8. The Toxicity with LX-1 Lung Xenography (40 mg/kg) is recorded as 8/8. Moreover, the IC50 with CCRF-CEM amounted to 0.0015 µg/mL (≈ 0.00334 µM).
Take `Nc1nc(O)c2c(n1)NCC(CCc1ccc(C(=O)N[C@@H](CCC(=O)O)C(=O)O)o1)C2` (stereo partly drawn) [N-[5-(2-{2-amino-4-hydroxy-5,6,7,8-tetrahydropyrido[2,3-d]pyrimidin-6-yl}ethyl)fur-2-ylcarbonyl]-L-glutamic acid]: the “% Inhibition” value in data set [1] (0.625 mg/kg, days 1, 4, 7) worked out at 1%; in data set [1] (1.25 mg/kg, days 1, 4, 7) it was 29%; in data set [1] (2.5 mg/kg, days 1, 4, 7) it was 98%; in data set [1] (5 mg/kg, days 1, 4, 7) it was 97%; in data set [1] (10 mg/kg, days 1, 4, 7), 100%; in data set [1] (20 mg/kg, days 1, 4, 7), 100%. Further, the “% Inhibition” value in data set [1] (25 mg/kg, eight days) is recorded as 59%; in data set [1] (50 mg/kg, eight days), 69%; in data set [1] (100 mg/kg, eight days) it was 89%. Moreover, the Toxicity was 0/10 in data set [1] (0.625 mg/kg, days 1, 4, 7); 0/10 in data set [1] (1.25 mg/kg, days 1, 4, 7); 0/10 in data set [1] (2.5 mg/kg, days 1, 4, 7); 0/10 in data set [1] (5 mg/kg, days 1, 4, 7); 0/10 in data set [1] (10 mg/kg, days 1, 4, 7); 0/10 in data set [1] (20 mg/kg, days 1, 4, 7). For the same compound, the Toxicity in data set [1] (25 mg/kg, eight days) is recorded as 0/10; in data set [1] (50 mg/kg, eight days), 0/10; in data set [1] (100 mg/kg, eight days), 0/10. Further, in the data set with CCRF-CEM, the IC50 came to 0.01 µg/mL (≈ 0.0231 µM).
Turning to `Nc1nc(O)c2c(n1)NCC(CCC1CCC(C(=O)N[C@@H](CCC(=O)O)C(=O)O)CC1)C2` (stereo partly drawn) [N-{4-[2-(2-amino-4-hydroxy-5,6,7,8-tetrahydropyrido[2,3-d]pyrimidin-6-yl)ethyl]cyclohexylcarbonyl}-L-glutamic acid], the “% Inhibition” value in data set [1] (12.5 mg/kg, eight days) is reported as 18%; in data set [1] (25 mg/kg, eight days), 4%; in data set [1] (50 mg/kg, eight days) it was 5%; in data set [1] (100 mg/kg, eight days), 22%. Besides, the Toxicity in data set [1] (12.5 mg/kg, eight days) is given as 0/10; in data set [1] (25 mg/kg, eight days), 0/10; in data set [1] (50 mg/kg, eight days) it was 0/10; in data set [1] (100 mg/kg, eight days) it was 0/9. Also, the IC50 in the data set with CCRF-CEM came out at 0.007 µg/mL (≈ 0.0156 µM).
